Legend:
[1] = In vivo antitumor assay, pancreatic ductal adenocarcinoma No. 03 (Panc03, SC); design: species or system mice; details: mouse, in vivo; Panc03 (SC); drug SC; QD3-9; read-out: Maximum Tolerated Total Dose
Description: (§1) In vivo Antitumor Assay Procedure
(§2) Mice: Inbred: C3H/He; and Hybrids: B6D2F1 (C57BL/6 females×DBA/2 males), CD2F1 (Balb/c females×DBA/2 males) and B6C3F1 (C57BL/6×C3H) were bred at Wayne State University from strains obtained from the Frederick Cancer Research Facility, Frederick, Md. or from commercial suppliers.
(§3) Tumors: Murine Tumors: P388 leukemia and the following transplantable solid tumors of mice were used for in vivo testing: B16 melanoma, pancreatic ductal adenocarcinoma No. 03, colon adenocarcinoma No. 38 and mammary ductal adenocarcinoma No. 16/C. All tumors are in the Developmental Therapeutics Program frozen tumor repository, maintained by the Biological Testing Branch, Frederick, Md. Each has a detailed description, code identification number, and list of references at the National Tumor Repository. Tumors were maintained in the mouse strain of origin and were transplanted in the appropriate F1 hybrid (or the strain of origin) for therapy trials. The mice were supplied food and water ad libitum.
(§4) Chemotherapy: For pancreatic ductal adenocarcinoma No. 03, colon adenocarcinoma No. 38, and mammary ductal adenocarcinoma No. 16, the following methods were used to help ensure a more uniform tumor burden per mouse (thus reducing the requirement for greater numbers of mice per group), bilateral tumor implants were used. The animals necessary to begin an experiment were pooled, implanted bilaterally s.c. on day zero with 30-60-mg tumor fragments using a 12-gauge trocar, and again pooled before randomization to the various treatment and control groups. Chemotherapy was started within three days after tumor implantation while the number of cells per mouse was relatively small (1×10^7 -1×10^8 cells).
(§5) End Points for Assessing Antitumor Activity: Quantitative end points used to assess antitumor activity included % Increased Life Span (% ILS), Tumor Cell Kill (Log10 kill), and Tumor Growth Inhibition (T/C). Long Term Survivors (45 or 60 day) were excluded from calculations of % ILS and Tumor Cell Kill.
(§6) Endpoints were calculated as follows: [formula] where Dt is the median day of death for treated and Dc is the median day of death for control groups.
(§7) T/C Value: Tumors were measured with a caliper once or twice weekly (as needed) until either tumors exceeded 1600 mg or cure was assured. Tumor weights were estimated from two-dimensional measurements: Tumor Weight (mg)=(a×b^2)/2, where a and b are the tumor length and width (mm), respectively. Measurements were carried out simultaneously in both the treatment and control groups. When the control group tumors reached approximately 750-1500 mg in size (median of group), the median tumor weight of each group was determined (including zeros). The T/C value in percent is an indication of antitumor effectiveness. […]. […]

[2] = test system: pancreatic ductal adenocarcinoma No. 03; test: as above; design: species or system mice
Description: as §1, §2, §3, §4, §5, §6, §7

[3] = In vivo antitumor assay, mammary ductal adenocarcinoma No. 16/C (SC); design: species or system mice; details: mouse, in vivo; Mam16/C (SC); drug SC; QD1-4; read-out: Maximum Tolerated Total Dose
Description: as §1, §2, §3, §4, §5, §6, §7

[4] = test system: mammary ductal adenocarcinoma No. 16/C; test: as above; design: species or system mice
Description: as §1, §2, §3, §4, §5, §6, §7

[5] = Toxicity observations in mice of the in vivo antitumor trials
Description: Dose limiting toxicity appeared to be leukopenia, based on small spleen sizes in necropsy of mice dying at lethal dosage levels. […] Host recovery was rapid, with mice regaining their lost body weight within two to five days post nadir (at the highest non-toxic dosage levels).

In the case of `Cc1cc(-c2c(F)cc3c(=O)c(C(=O)O)cn4c3c2SC[C@@H]4C)cc(C)n1` [Example 5, (S)-10-(2,6-Dimethyl-4-pyridinyl)-9-fluoro-3-methyl-7-oxo-2,3-dihydro-7H-pyrido[1,2,3-de][1,4]benzothiazine-6-carboxylic acid], the MTD [1] is reported as 781 mg/kg, the “Long Term Survivors” value ([2]; Panc03 (SC), drug SC, QD3-9, 781 mg/kg total) is reported as 0/5 and the “% T/C” value ([2]; Panc03 (SC), drug SC, QD3-9, at maximum tolerated total dose 781 mg/kg) is reported as 17%. The “antitumor activity (in words)” value ([2]; Pancreatic Ductal Adenocarcinoma 03) was “clearly active”, the MTD [3] was 263 mg/kg and the “Long Term Survivors” value ([4]; Mam16/C (SC), drug SC, QD1-4, 263 mg/kg total) was 0/5. For the same molecule, the “% T/C” value ([4]; Mam16/C (SC), drug SC, QD1-4, at maximum tolerated total dose 263 mg/kg) was 15%, the “antitumor activity (in words)” value ([4]; Mammary Adenocarcinoma No. 16/C) was “clearly active” and the Dose limiting toxicity ([5]; based on small spleen sizes in necropsy of mice dying at lethal dosage levels) was “leukopenia”. For the same molecule, the “host recovery (in words)” value ([5]; mouse, in vivo) was “rapid”, the “host recovery: time to regain lost body weight post nadir” value ([5]; mouse, in vivo) was “two to five” and the tolerability ([5]; mouse, in vivo) was “well tolerated with no long delayed toxicity problems”.
